# Assay results as given in PMC3598705, “Evaluation of Toxicity and Biodegradability of Cholinium Amino Acids Ionic Liquids” (PLoS ONE, 2013).
# Read-outs that look alike come from different tables or passages of the source.
# Key:
# [1] = tested on: E. coli ATCC 8739; test: Antimicrobial activity, tube dilution method; format: cell-based, Escherichia coli; conditions: four repeated experiments
# Method: (§1) Antimicrobial activity was measured via the tube dilution method as described previously. Briefly, E. coli, S. aureus, S. enteritidis and L. monocytogenes were cultured in Mueller-Hinton broth for 24 h at 37 °C. A microorganism suspension of 10^6 cfu mL^−1 (cfu, colony forming units) was prepared from each culture. IL solutions (31.3–1500 mM) were prepared with sterilized Mueller-Hinton broth, and then were sterilized by filtration (0.45 µm pore-diameter membrane). The various permutations of microorganism suspension (50 µL) and IL solution (50 µL) were mixed in 96-well microtiter plate. Growth of the microorganisms was determined visually after incubation for 24 h at 37 °C. Controls were conducted under the same conditions: negative controls without microorganisms and positive controls without ILs. The lowest concentration at which there was no visible growth (turbidity) was taken as the minimal inhibitory concentration (MIC). Samples of 20 µL from each well were spread onto Mueller-Hinton agar medium with inactivates (0.3% lecithin, 3% polysorbate 80 and 0.1% L-cysteine) and incubated for 48 h at 37 °C. The lowest concentration of the IL that killed 99.9% or more of the test bacterium was taken as the minimum biocidal concentration (MBC).
# [2] = tested on: S. aureus ATCC 29213; test: Antimicrobial activity, tube dilution method; format: cell-based, Staphylococcus aureus; conditions: four repeated experiments
# Method: as §1
# [3] = tested on: L. monocytogenes ATCC 19115; test: Antimicrobial activity, tube dilution method; format: cell-based, Listeria monocytogenes; conditions: four repeated experiments
# Method: as §1
# [4] = tested on: S. enteritidis ATCC 14128; test: Antimicrobial activity, tube dilution method; format: cell-based, Salmonella enteritidis; conditions: four repeated experiments; for MIC: 24 h at 37 °C; for MBC: kills 99.9% or more
# Method: as §1
# [5] = target: T1, AChE type VI-S (from the electric eel) (Electrophorus electricus, UniProt O42275); test: AChE inhibition assay (colorimetric, DTNB reduction); format: biochemical; conditions: DTNB 0.5 mM, AChE 0.05 U mL^−1, acetylthiocholine iodide 0.5 mM, 37 °C, phosphate buffer pH 8.0; mean ± SD; read-out: EC50±SD (toxicity toward AChE)
# T1 construct: purchased Sigma–Aldrich, USA type VI-S (catalogue number not given)
# T1 sequence (O42275 24-633): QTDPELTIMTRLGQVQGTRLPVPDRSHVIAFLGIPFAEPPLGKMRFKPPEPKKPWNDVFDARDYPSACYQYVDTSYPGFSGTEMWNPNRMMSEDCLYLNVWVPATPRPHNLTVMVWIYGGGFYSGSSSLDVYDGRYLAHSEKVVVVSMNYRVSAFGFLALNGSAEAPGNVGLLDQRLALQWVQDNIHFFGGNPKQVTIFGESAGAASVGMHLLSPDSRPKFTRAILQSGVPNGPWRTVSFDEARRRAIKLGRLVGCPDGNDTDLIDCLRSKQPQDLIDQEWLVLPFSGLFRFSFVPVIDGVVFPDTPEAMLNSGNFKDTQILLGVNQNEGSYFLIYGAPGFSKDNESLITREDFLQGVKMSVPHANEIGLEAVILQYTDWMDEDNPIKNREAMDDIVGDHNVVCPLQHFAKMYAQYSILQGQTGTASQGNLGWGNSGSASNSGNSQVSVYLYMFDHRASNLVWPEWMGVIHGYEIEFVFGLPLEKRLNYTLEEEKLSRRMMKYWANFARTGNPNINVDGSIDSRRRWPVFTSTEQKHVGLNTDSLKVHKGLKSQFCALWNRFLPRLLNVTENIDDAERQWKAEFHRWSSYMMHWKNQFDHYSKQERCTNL
# Method: A colorimetric assay based on reduction of DTNB was used to measure AChE inhibition as described previously, [24], in the presence of a phosphate buffer system in order to eliminate the effects of pH changes on enzyme activity. Briefly, IL solutions were prepared with 0.2 M phosphate buffer (pH 8.0) in 96-well microtiter plates. The enzyme (0.2 U mL^−1, plus 0.25 mg mL^−1 bovine serum albumin in the same phosphate buffer), and DTNB (2 mM, plus 0.185 mg mL^−1 NaHCO3 in the same phosphate buffer) were added to each well and kept at 37 °C for 5 min, and then the reaction was initiated by adding acetylthiocholine iodide (2 mM in the same phosphate buffer). In the experimental reactions, the final concentrations of DTNB, acetylthiocholine iodide and AChE were 0.5 mM, 0.5 mM and 0.05 U mL^−1, respectively. Except where stated otherwise, the concentration range used to calculate EC50 of the [Ch][AA] ILs was 0–50 mM. However, for strongly alkaline [Ch][AA] ILs such as [Ch][Lys], the maximum concentration used was 20 mM in order to avoid changes in enzyme activity due to pH changes that would be caused if the IL exceeded the buffering capacity of the phosphate buffer. Acidic amino acid-derived ILs ([Ch][Asp] and [Ch][Glu]) were used up to 80 mM. The control compounds cholinium chloride ([Ch][Cl]), [Bmim][BF4] and acetone were used at concentration ranges of 0–80 mM, 0–50 mM and 10 mM–2.5 M, respectively. Control experiments without enzyme were carried out under otherwise identical conditions. Reduction of DTNB was monitored at 405 nm and at 10 second intervals in a microplate reader (Wallac 1420 VICTOR3, PerkinElmer, Singapore) over a period of 5 min. Enzyme activity was expressed as ΔOD min^−1 obtained via linear regression analysis. All assays were performed at least in triplicate.
# All data were analyzed by One-Way analysis of variance using SPSS 11.5 (SPSS Inc., USA). EC50 values are presented as mean ± standard deviation (SD) from at least three repeats, and confidence intervals (α = 0.05) of EC50 are also presented. The One-Way ANOVA was used to judge if the difference between the different ILs groups was significant. When the p value was<0.05, the difference was considered to be significant.
Structure (SMILES),EC50 [5],MIC ([1]; 24 h at 37 °C),MBC ([1]; kills 99.9% or more),MIC ([2]; 24 h at 37 °C),MBC ([2]; kills 99.9% or more),MIC ([3]; 24 h at 37 °C),MBC ([3]; kills 99.9% or more),MIC [4],MBC [4],other results
"CCCCn1cc[n+](C)c1 [[Bmim][BF4], 1-Butyl-3-methylimidazolium tetrafluoroborate, reference compound]",0.33 ± 0.01 mM,–,–,–,–,–,–,–,–,"MIC ([1]; Escherichia coli, ATCC8739, 24 h at 37 °C, read-out: MIC): 2.3 mM; MBC ([1]; Escherichia coli, ATCC8739, kills 99.9% or more, read-out: MBC): 4.6 mM; MIC ([2]; Staphylococcus aureus, ATCC29213, 24 h at 37 °C, read-out: MIC): 2.3 mM; MBC ([2]; Staphylococcus aureus, ATCC29213, kills 99.9% or more, read-out: MBC): 4.6 mM; MIC ([3]; Listeria monocytogenes, ATCC19115, 24 h at 37 °C, read-out: MIC): 2.3 mM; MBC ([3]; Listeria monocytogenes, ATCC19115, kills 99.9% or more, read-out: MBC): 4.6 mM; MIC ([4]; Salmonella enterica, read-out: MIC): 2.3 mM; MBC ([4]; Salmonella enterica, read-out: MBC): 2.3 mM"
C[C@H](N)C(=O)O [[Ch][Ala]],3.33 ± 0.1 mM,–,–,–,–,–,–,–,–,–
C[N+](C)(C)CCO.N=C(N)NCCC[C@H](N)C(=O)[O-] [[Ch][Arg]],3.67 ± 0.07 mM,46.9 mM,93.8 mM,93.8 mM,125 mM,93.8 mM,125 mM,46.9 mM,62.5 mM,–
NC(=O)C[C@H](N)C(=O)O [[Ch][Asn]],3.94 ± 0.05 mM,–,–,–,–,–,–,–,–,–
C[N+](C)(C)CCO.C[N+](C)(C)CCO.N[C@@H](CC(=O)[O-])C(=O)[O-] [[Ch][Asp]],3.81 ± 0.09 mM,500 mM,750 mM,750 mM,750 mM,500 mM,750 mM,125 mM,188 mM,–
"C[N+](C)(C)CCO.[Cl-] [[Ch][Cl], cholinium chloride, reference compound]",3.16 ± 0.09 mM,>750 mM,>750 mM,>750 mM,>750 mM,>750 mM,>750 mM,>750 mM,>750 mM,–
NC(=O)CC[C@H](N)C(=O)O [[Ch][Gln]],3.51 ± 0.16 mM,–,–,–,–,–,–,–,–,–
C[N+](C)(C)CCO.N[C@@H](CCC(=O)O)C(=O)[O-] [[Ch][Glu]],3.72 ± 0.07 mM,500 mM,750 mM,750 mM,750 mM,500 mM,750 mM,125 mM,188 mM,–
NCC(=O)O [[Ch][Gly]],3.83 ± 0.17 mM,–,–,–,–,–,–,–,–,–
N[C@@H](Cc1cnc[nH]1)C(=O)O [[Ch][His]],3.63 ± 0.04 mM,–,–,–,–,–,–,–,–,–
CCC(C)C(N)C(=O)[O-].C[N+](C)(C)CCO (centres unmarked) [[Ch][Ile]],3.57 ± 0.07 mM,46.9 mM,62.5 mM,93.8 mM,125 mM,46.9 mM,62.5 mM,46.9 mM,62.5 mM,–
CC(C)C[C@H](N)C(=O)[O-].C[N+](C)(C)CCO [[Ch][Leu]],3.36 ± 0.05 mM,46.9 mM,62.5 mM,93.8 mM,125 mM,46.9 mM,62.5 mM,46.9 mM,62.5 mM,–
C[N+](C)(C)CCO.NCCCC[C@H](N)C(=O)[O-] [[Ch][Lys]],3.48 ± 0.13 mM,31.3 mM,46.9 mM,62.5 mM,93.8 mM,62.5 mM,93.8 mM,31.3 mM,–,–
CSCC[C@H](N)C(=O)O [[Ch][Met]],3.13 ± 0.14 mM,–,–,–,–,–,–,–,–,–
C[N+](C)(C)CCO.N[C@@H](Cc1ccccc1)C(=O)[O-] [[Ch][Phe]],2.74 ± 0.1 mM,31.3 mM,46.9 mM,62.5 mM,93.8 mM,46.9 mM,62.5 mM,31.3 mM,46.9 mM,–
O=C(O)[C@@H]1CCCN1 [[Ch][Pro]],3.37 ± 0.16 mM,–,–,–,–,–,–,–,–,–
N[C@@H](CO)C(=O)O [[Ch][Ser]],3.56 ± 0.15 mM,–,–,–,–,–,–,–,–,–
C[C@@H](O)[C@H](N)C(=O)O [[Ch][Thr]],3.45 ± 0.15 mM,–,–,–,–,–,–,–,–,–
C[N+](C)(C)CCO.N[C@@H](Cc1c[nH]c2ccccc12)C(=O)[O-] [[Ch][Trp]],2.45 ± 0.02 mM,23.4 mM,31.3 mM,46.9 mM,62.5 mM,31.3 mM,46.9 mM,23.4 mM,31.3 mM,–
CC(C)[C@H](N)C(=O)O [[Ch][Val]],3.06 ± 0.12 mM,46.9 mM,62.5 mM,93.8 mM,125 mM,93.8 mM,125 mM,46.9 mM,62.5 mM,–
